The record followed here is ChEMBL document CHEMBL1129327, “Diphenylpropionic acids as new AT1 selective angiotensin II antagonists” (J Med Chem, 1996).

The target of assay [1] is T1, Angiotensin II receptor (AT-1) type-1 (Rattus norvegicus, UniProt P29089+P25095).
T1 sequence (P29089 whole entry): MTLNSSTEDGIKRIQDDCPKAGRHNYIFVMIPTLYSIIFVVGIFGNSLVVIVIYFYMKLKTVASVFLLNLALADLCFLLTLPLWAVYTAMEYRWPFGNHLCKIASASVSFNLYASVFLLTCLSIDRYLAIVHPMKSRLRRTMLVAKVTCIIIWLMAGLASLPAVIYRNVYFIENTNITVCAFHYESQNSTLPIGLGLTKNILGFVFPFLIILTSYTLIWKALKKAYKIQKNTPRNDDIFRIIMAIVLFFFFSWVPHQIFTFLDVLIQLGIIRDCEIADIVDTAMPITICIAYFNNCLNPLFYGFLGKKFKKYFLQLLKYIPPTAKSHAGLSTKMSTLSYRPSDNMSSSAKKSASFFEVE
T1 sequence (P25095 whole entry): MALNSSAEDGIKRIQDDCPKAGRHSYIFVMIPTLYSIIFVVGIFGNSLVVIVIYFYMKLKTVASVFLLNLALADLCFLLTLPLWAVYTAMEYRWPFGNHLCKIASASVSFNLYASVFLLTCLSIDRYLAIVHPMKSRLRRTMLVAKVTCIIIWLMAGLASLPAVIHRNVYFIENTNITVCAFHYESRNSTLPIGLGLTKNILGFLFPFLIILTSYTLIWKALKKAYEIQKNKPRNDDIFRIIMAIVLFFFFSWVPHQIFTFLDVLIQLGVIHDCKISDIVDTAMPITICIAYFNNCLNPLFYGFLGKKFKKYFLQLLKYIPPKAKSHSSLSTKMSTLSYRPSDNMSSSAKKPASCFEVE
Nature of the assay: Inhibitory concentration was evaluated by measuring displacement of [3H]AII from rat liver Angiotensin II receptor, type 1. (In a radioligand displacement assay an active substance lowers the binding of a labelled ligand.)

The target in assay [2] is Angiotensin II receptor (Rattus norvegicus) (UniProt P29089+P25095+P35351). Nature of the assay: In vivo inhibitory percentage of pressor response induced by exogenous submaximal dose of angiotensin-II (3 ug/kg) administered iv to pithed rats. It counts as functional, organism-based.
The test system of assay [3] is Rattus norvegicus. Put plainly: (§1) In vivo inhibitory percentage of pressor response induced by exogenous submaximal dose of angiotensin -II […] administered iv to pithed rats. In kind it is functional.
The species entered for assay [4] is Oryctolagus cuniculus. Put plainly: Antagonism against A-2 induced contraction of aortic rings from rabbit. In kind it is functional. To be noted: Aorta, read-out: pA2 (converted).
For assay [5], the system named is Rattus norvegicus. Described as §1. It counts as functional. The source holds these as a separate data set.

Chain of Angiotensin II receptor (Rattus norvegicus) (P35351 whole entry, looked up, one chain of several): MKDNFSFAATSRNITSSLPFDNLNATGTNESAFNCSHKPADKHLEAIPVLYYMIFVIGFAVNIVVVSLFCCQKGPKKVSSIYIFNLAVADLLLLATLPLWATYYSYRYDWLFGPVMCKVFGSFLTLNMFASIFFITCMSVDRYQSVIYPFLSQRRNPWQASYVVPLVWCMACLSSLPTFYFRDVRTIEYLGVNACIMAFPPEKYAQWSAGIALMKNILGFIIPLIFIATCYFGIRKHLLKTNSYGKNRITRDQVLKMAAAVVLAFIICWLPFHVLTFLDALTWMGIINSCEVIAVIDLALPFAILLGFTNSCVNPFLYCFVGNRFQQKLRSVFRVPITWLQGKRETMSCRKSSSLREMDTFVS

Regarding `CCc1nc2c(C)cc(C)nc2n1Cc1ccc(C(c2ccc(C)cc2)C(C(=O)O)C(=O)O)cc1` (configuration not stated), the IC50 in assay [1] stood at 1100 nM. This compound displayed an inhibition in assay [2] of 17.1%.
In the same order, the values of `CCc1nc2c(C)cc(C)nc2n1Cc1ccc(C(c2ccccc2)C(Cc2ccccc2)C(=O)O)cc1` (configuration not stated) are 200 nM and 31.5%.
In assay [2], `CCc1nc2c(C)cc(C)nc2n1Cc1ccc(/C(=C(/Br)c2nn[nH]n2)c2ccccc2)cc1` (stereo in doubt; 22c) [listing 1 of 2 here] registered an inhibition of 39.9%.
In turn, `CCc1nc2c(C)cc(C)nc2n1Cc1ccc([C@H](c2ccccc2)[C@@H](C)C(=O)O)o1` registered an IC50 in assay [1] of 5600 nM. Further, the Inhibition in assay [3] is below 10%.
In assay [2], `CCc1nc2c(C)cc(C)nc2n1Cc1ccc(C(c2ccccc2)C(C(=O)O)C(F)(F)F)cc1` (configuration not stated) showed an inhibition of 32.3%.
Turning to `CCc1nc2c(C)cc(C)nc2n1Cc1ccc(C(c2ccccc2)C(C(=O)O)C(=O)O)cc1` (configuration not stated), the half-maximal inhibitory concentration (IC50) in assay [1] came to 120 nM. In assay [2], this compound yielded an inhibition of 79.9%.
On to `CCc1nc2c(C)cc(C)nc2n1Cc1ccc([C@H](c2ccccc2)[C@@H](C)C(=O)O)cc1` (stereo in doubt; (+)37g), for which the IC50 in assay [1] worked out at 440 nM. In assay [3], this compound displayed an Inhibition of 19.7%.
`CCc1nc2c(C)cc(C)nc2n1Cc1ccc(C(CC(=O)O)c2ccccc2)cc1` (configuration not stated) yielded an IC50 in assay [1] of 110 nM. The compound further returned an inhibition in assay [2] of 68.5%.
For `CCc1nc2c(C)cc(C)nc2n1Cc1ccc(C(CC(=O)NS(C)(=O)=O)c2ccccc2)cc1` (configuration not stated), in that order: 94 nM and 72.7%.
As for `CCC[C@@H](C(=O)O)[C@@H](c1ccccc1)c1ccc(Cn2c(CC)nc3c(C)cc(C)nc32)cc1`, in assay [1], the IC50 amounted to 590 nM. This compound gave an Inhibition in assay [3] of 27.8%.
`CCc1nc2c(C)cc(C)nc2n1Cc1ccc(/C(=C\c2nn[nH]n2)c2ccccc2)cc1` (stereo in doubt; 22a) [listing 1 of 2 here] registered an IC50 in assay [1] of 92 nM. In other words, the double-digit nanomolar range.
`CCc1nc2c(C)cc(C)nc2n1Cc1ccc(C(CC(=O)NS(=O)(=O)c2ccccc2)c2ccccc2)cc1` (configuration not stated) yielded an IC50 in assay [1] of 360 nM. Further, the inhibition in assay [2] was 48.2%.
In the case of `CCc1nc2c(C)cc(C)nc2n1Cc1ccc(C(c2ccccc2)C(C)(C)C(=O)O)cc1` (configuration not stated), the IC50 in assay [1] worked out at 240 nM. This compound registered an inhibition in assay [2] of 50.7%.
With `CCc1nc2c(C)cc(C)nc2n1Cc1ccc([C@H](c2ccccc2)[C@@H](C)C(=O)O)cc1` (stereo in doubt; 37g), in assay [1], the IC50 was 250 nM. Further, the Inhibition in assay [3] is on record as 28.2%. In addition, in assay [4], the Kb is 49 nM.
`CCc1nc2c(C)cc(C)nc2n1Cc1ccc(C(c2ccccc2)C(C)C(=O)O)cc1` (configuration not stated) displayed an IC50 in assay [1] of 71 nM. For the same compound, the inhibition in assay [2] was 73.7%.
Regarding `CCc1nc2c(C)cc(C)nc2n1Cc1ccc(/C(=C\C(=O)O)c2ccccc2)cc1` (stereo in doubt; 12B) [listing 1 of 2 here], the inhibition in assay [2] stood at 22.9%.
`CCc1nc2c(C)cc(C)nc2n1Cc1ccc([C@H](c2ccccc2)[C@H](C)C(=O)O)o1` registered an IC50 in assay [1] of 4800 nM. The compound also registered an Inhibition in assay [3] below 10%.
For `CCc1nc2c(C)cc(C)nc2n1Cc1ccc(C(c2ccccc2C)C(C(=O)O)C(=O)O)cc1` (configuration not stated), the IC50 in assay [1] was 210 nM. Besides, the inhibition in assay [2] is 62%.
`CCc1nc2c(C)cc(C)nc2n1Cc1ccc(C(CC)C(C)C(=O)O)cc1` (configuration not stated) had an IC50 in assay [1] of 330 nM. Also, the inhibition in assay [2] was 45.7%.
In the same order, the values of `CCc1nc2c(C)cc(C)nc2n1Cc1ccc(C(c2ccccc2)C(Br)C(=O)O)cc1` (configuration not stated) are 170 nM and 47.1%.
In turn, `CCc1nc2c(C)cc(C)nc2n1Cc1ccc([C@H](c2ccccc2)[C@H](C)C(=O)O)cc1` (stereo in doubt; (-36)g) came in with an IC50 in assay [1] of 76 nM. Besides, the Inhibition in assay [3] came to 80.3%.
Compound `CCc1nc2c(C)cc(C)nc2n1Cc1ccc(/C(=C\c2nn[nH]n2)c2ccccc2)cc1` (stereo in doubt; 22b) [listing 1 of 2 here] returned a 50% inhibitory concentration (IC50) in assay [1] of 130 nM.
As to `CCc1nc2c(C)cc(C)nc2n1Cc1ccc(/C(=C\C(=O)O)c2ccccc2)cc1` (stereo in doubt; 12A) [listing 1 of 2 here], in assay [1], the IC50 worked out at 120 nM.
Still for that read-out and setting: for `CCc1nc2c(C)cc(C)nc2n1Cc1ccc(/C(=C(/Br)c2nn[nH]n2)c2ccccc2)cc1` (stereo in doubt; 22d) [listing 1 of 2 here] the value was 290 nM.
On to `CCc1nc2c(C)cc(C)nc2n1Cc1ccc(C(CC(=O)O)c2ccccc2F)cc1` (configuration not stated), for which the IC50 in assay [1] worked out at 130 nM. In addition, the inhibition in assay [2] worked out at 68.7%.
For `CCc1nc2c(C)cc(C)nc2n1Cc1ccc(C(=C(C(=O)O)C(=O)O)c2ccccc2)cc1`, in that order: 320 nM and 69.2%.
`CCc1nc2c(C)cc(C)nc2n1Cc1ccc(C(C)C(C)C(=O)O)cc1` (configuration not stated) had an inhibition in assay [2] of 46%.
`CCc1nc2c(C)cc(C)nc2n1Cc1ccc(C(CC(=O)O)c2ccc(OC)cc2)cc1` (configuration not stated): the IC50 in assay [1] is 3700 nM.
Consider `CCc1nc2c(C)cc(C)nc2n1Cc1ccc(C(Cc2nnn[nH]2)c2ccccc2)cc1` (configuration not stated), for which, in assay [1], the IC50 was 120 nM. In assay [2], this compound gave an inhibition of 55.4%.
In assay [1], `CCc1nc2c(C)cc(C)nc2n1Cc1ccc(/C(=C(/Br)c2nn[nH]n2)c2ccccc2)cc1` (stereo in doubt; 22c) [listing 2 of 2 here] displayed an IC50 of 44 nM. That is a double-digit nanomolar value.
`CCc1nc2c(C)cc(C)nc2n1Cc1ccc(C(CC(=O)O)c2ccc(F)cc2F)cc1` (configuration not stated) displayed an IC50 in assay [1] of 250 nM. For the same compound, the inhibition in assay [2] was found to be 40.4%.
In assay [1], `CCc1nc2c(C)cc(C)nc2n1Cc1ccc(C(CC(=O)O)c2ccc(-c3ccncc3)cc2)cc1` (configuration not stated) showed an IC50 of 5300 nM.
`CCc1nc2c(C)cc(C)nc2n1Cc1ccc([C@H](c2ccccc2)[C@H](C)C(=O)O)cc1` (stereo in doubt; (+36)g) yielded a half-inhibitory concentration (IC50) in assay [1] of 71 nM. The compound further gave an Inhibition in assay [3] of 80.9%.
For `CCc1nc2c(C)cc(C)nc2n1Cc1ccc([C@H](c2ccccc2)[C@@H](C)C(=O)O)cc1` (stereo in doubt; (-)37g), in that order: 180 nM and 22.1%.
Regarding `CCc1nc2c(C)cc(C)nc2n1Cc1ccc(C(C(C)C)C(C)C(=O)O)cc1` (configuration not stated), the IC50 in assay [1] was found to be 600 nM. For the same compound, the inhibition in assay [2] came to 30.4%.
In the case of `CCc1nc2c(C)cc(C)nc2n1Cc1ccc(/C(=C\c2nn[nH]n2)c2ccccc2)cc1` (stereo in doubt; 22b) [listing 2 of 2 here], the inhibition in assay [2] is below 10%.
In the case of `CCc1nc2c(C)cc(C)nc2n1Cc1ccc(C(c2cccc(C)c2)C(C(=O)O)C(=O)O)cc1` (configuration not stated), the IC50 in assay [1] stood at 450 nM. In assay [2], the inhibition was 61.7%.
In the same order, the values of `CCc1nc2c(C)cc(C)nc2n1Cc1ccc(C(CC(=O)O)c2ccccc2Cl)cc1` (configuration not stated) are 200 nM and 69.1%.
`CCc1nc2c(C)cc(C)nc2n1Cc1ccc(/C(=C(/Br)c2nn[nH]n2)c2ccccc2)cc1` (stereo in doubt; 22d) [listing 2 of 2 here] displayed an inhibition in assay [2] of 22.8%.
As for `CCc1nc2c(C)cc(C)nc2n1Cc1ccc([C@H](c2ccccc2)[C@H](C)C(=O)NS(C)(=O)=O)cc1`, the IC50 in assay [1] was 58 nM. Also, the Inhibition stood at 71.3% in assay [3] and 55.9% in assay [5].
For the compound `CCc1nc2c(C)cc(C)nc2n1Cc1ccc(C(c2ccccc2)C(CC)C(=O)O)cc1` (configuration not stated), the IC50 in assay [1] came to 78 nM. Moreover, the inhibition in assay [2] was determined as 76.2%.
Compound `CCc1nc2c(C)cc(C)nc2n1Cc1ccc(/C(=C\c2nn[nH]n2)c2ccccc2)cc1` (stereo in doubt; 22a) [listing 2 of 2 here] showed an inhibition in assay [2] of 41%.
In assay [1], `CCc1nc2c(C)cc(C)nc2n1Cc1ccc(/C(=C\C(=O)O)c2ccccc2)cc1` (stereo in doubt; 12B) [listing 2 of 2 here] displayed an IC50 of 170 nM. In other words, the sub-micromolar range.
Compound `CCc1nc2c(C)cc(C)nc2n1Cc1ccc(C(Cc2ccccc2)C(C(=O)O)C(=O)O)cc1` (configuration not stated) had an IC50 in assay [1] above 10000 nM. In addition, in assay [2], the inhibition is below 10%.
The compound `CCc1nc2c(C)cc(C)nc2n1Cc1ccc(/C(=C\C(=O)O)c2ccccc2)cc1` (stereo in doubt; 12A) [listing 2 of 2 here] returned an inhibition in assay [2] of 30.4%.
`CCc1nc2c(C)cc(C)nc2n1Cc1ccc(C(CCNS(=O)(=O)C(F)(F)F)c2ccccc2)cc1` (configuration not stated) came in with an IC50 in assay [1] above 10000 nM.
In the case of `CCc1nc2c(C)cc(C)nc2n1Cc1ccc(C(c2ccccc2)C(C#N)C(=O)O)cc1` (configuration not stated), the IC50 in assay [1] stood at 160 nM. For the same compound, the inhibition in assay [2] came to 68.7%.
In the case of `CCC[C@H](C(=O)O)[C@@H](c1ccccc1)c1ccc(Cn2c(CC)nc3c(C)cc(C)nc32)cc1`, the IC50 in assay [1] turned out to be 83 nM. In addition, the Inhibition in assay [3] worked out at 73.8%; in assay [5] it was 64%.
`CCc1nc2c(C)cc(C)nc2n1Cc1ccc([C@H](c2ccccc2)[C@@H](CC)C(=O)O)cc1` registered an IC50 in assay [1] of 450 nM. In addition, the Inhibition in assay [3] turned out to be 44.9%.
In the case of `CCCCc1nc(Cl)c(CO)n1Cc1ccc(-c2ccccc2-c2nnn[nH]2)cc1` [LOSARTAN], the figures for the Inhibition in assay [3] and in assay [5] were 93.5% and 62.5%, respectively. Also, the Kb in assay [4] is 2.95 nM.

One may read the IC50 as the concentration at which inhibition is half-maximal. A lower IC50 goes with inhibition by little substance. One may read the inhibition as the drop in the measured response relative to a control, in per cent. Usually Inhibition stands for the relative decrease from the control value, in per cent. A lower Inhibition goes with a weak effect.
